# Data reported in patent US7297700B2, “Bicycloheteroaryl compounds as P2X7 modulators and uses thereof” (Renovis, Inc., priority 2005, dated 2007).
# Tested on: IL-1β release from THP-1 cells
# Test: IL-1β Release Assay (Alternate Method), THP-1 cells
# Assay type: cell-based, human
# Settings: Homo sapiens, THP-1, read-out: IL-1β % inhibition
# How it was run: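 THP-1 cells differentiated 16 h with 100 ng/mL LPS plus 100 ng/mL IFN-γ, reprimed 2 h with 100 ng/mL LPS, pretreated 30 min with compound, then challenged 45 min with 250 uM BzATP (final). Supernatant IL-1β quantified by ELISA; percent inhibition from background-adjusted levels versus untreated cells.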
row,SMILES,inhibition at 0.3 µM [%]
1,O=C(Nc1ncnc2c1CCN(S(=O)(=O)c1ccccc1)C2)C12CC3CC(CC(C3)C1)C2 [Compound 481],25 to 50

# Same assay, conditions: Homo sapiens; at 0.3 μM; THP-1 cells; read-out: IL-1β % inhibition
row,SMILES,inhibition at 0.3 µM [%]
1,"O=C(CC12CC3CC(CC(C3)C1)C2)Nc1ncnc2c1CCNC2 [Compound 6, 2-Adamantan-1-yl-N-(5,6,7,8-tetrahydro-pyrido[3,4-d]pyrimidin-4-yl)-acetamide]",0 to 25
2,"O=C(CC12CC3CC(CC(C3)C1)C2)Nc1ccnc2c1CCN(Cc1ccccc1)C2 [Compound 342, 2-Adamantan-1-yl-N-(7-benzyl-5,6,7,8-tetrahydro-[1,7]naphthyridin-4-yl)-acetamide]",0 to 25

# Same assay, conditions: at 0.3 μM; THP-1 cells
row,SMILES,IL-1β % inhibition
1,O=C(CC12CC3CC(CC(C3)C1)C2)Nc1ncnc2c1CCN(S(=O)(=O)c1cccc(C(F)(F)F)c1)C2 [Compound 154],++++ (compound exhibited 75% or greater inhibition at 0.3 μM)
2,COc1ccccc1C(=O)N1CCc2c(ncnc2NC(=O)CC23CC4CC(CC(C4)C2)C3)C1 [Compound 292],+++ (compound exhibited 50-75% inhibition at 0.3 μM)
3,O=C(CC12CC3CC(CC(C3)C1)C2)Nc1ncnc2c1CCN(S(=O)(=O)c1c(Cl)cccc1Cl)C2 [Compound 210],+ (compound exhibited 0-25% inhibition at 0.3 μM)
4,O=C(CC12CC3CC(CC(C3)C1)C2)Nc1ncnc2c1CCN(Cc1ccc(-c3ccccc3)s1)C2 [Compound 79],+ (compound exhibited 0-25% inhibition at 0.3 μM)
5,CC(=O)Nc1ccc(CN2CCc3c(ncnc3NC(=O)CC34CC5CC(CC(C5)C3)C4)C2)cc1 [Compound 62],+++ (compound exhibited 50-75% inhibition at 0.3 μM)
6,CC12CC3CC(C)(C1)CC(CC(=O)Nc1ncnc4c1CCN(C(=O)c1c(F)cccc1F)C4)(C3)C2 [Compound 387],+ (compound exhibited 0-25% inhibition at 0.3 μM)
7,O=C(CC12CC3CC(CC(C3)C1)C2)Nc1ncnc2c1CCN(C(=O)c1cccc(OC(F)(F)F)c1)C2 [Compound 269],++ (compound exhibited 25-50% inhibition at 0.3 μM)
8,O=C(CC12CC3CC(CC(C3)C1)C2)Nc1ncnc2c1CCN(S(=O)(=O)c1cccc(OC(F)(F)F)c1)C2 [Compound 161],++ (compound exhibited 25-50% inhibition at 0.3 μM)
9,CC(C)Oc1ccc(CN2CCc3c(ncnc3NC(=O)CC34CC5CC(CC(C5)C3)C4)C2)cc1 [Compound 113],+ (compound exhibited 0-25% inhibition at 0.3 μM)
10,O=C(NCC1CCCCC1)c1ncnc2c1CCN(Cc1ccccc1Cl)C2 [Compound 50],+ (compound exhibited 0-25% inhibition at 0.3 μM)
11,O=C(CC12CC3CC(CC(C3)C1)C2)Nc1ncnc2c1CCN(C(=O)c1ccc(Cl)cc1Cl)C2 [Compound 258],++++ (compound exhibited 75% or greater inhibition at 0.3 μM)
12,COc1ccccc1CCC(=O)Nc1ncnc2c1CCN(Cc1ccncc1)C2 [Compound 133],+ (compound exhibited 0-25% inhibition at 0.3 μM)
13,O=C(CC12CC3CC(CC(C3)C1)C2)Nc1ncnc2c1CCN(Cc1ccc(Cl)c(F)c1)C2 [Compound 329],+++ (compound exhibited 50-75% inhibition at 0.3 μM)
14,O=C(CC12CC3CC(CC(C3)C1)C2)Nc1ncnc2c1CCN(C(=O)c1cc(C(F)(F)F)ccc1Cl)C2 [Compound 271],++++ (compound exhibited 75% or greater inhibition at 0.3 μM)
15,COc1ccccc1CN1CCc2c(ncnc2NC(=O)CC23CC4CC(CC(C4)C2)C3)C1 [Compound 29],+ (compound exhibited 0-25% inhibition at 0.3 μM)
16,O=C(CC12CC3CC(CC(C3)C1)C2)Nc1ncnc2c1CCN(S(=O)(=O)c1cc(F)ccc1F)C2 [Compound 203],+ (compound exhibited 0-25% inhibition at 0.3 μM)
17,CS(=O)(=O)N1CCc2c(ncnc2NC(=O)CC23CC4CC(CC(C4)C2)C3)C1 [Compound 142],+++ (compound exhibited 50-75% inhibition at 0.3 μM)
18,O=C(CC12CC3CC(CC(C3)C1)C2)Nc1ncnc2c1CCN(C(=O)C1CC1)C2 [Compound 260],+++ (compound exhibited 50-75% inhibition at 0.3 μM)

row,SMILES,IL-1β % inhibition
1,O=C(CC12CC3CC(CC(C3)C1)C2)Nc1ncnc2c1CCN(Cc1cccc(OCCO)c1)C2 [Compound 101],++ (compound exhibited 25-50% inhibition at 0.3 μM)
2,O=C(CC1CCCCC1)Nc1ncnc2c1CCN(CCCO)C2 [Compound 21],+ (compound exhibited 0-25% inhibition at 0.3 μM)
3,Cn1ccnc1CN1CCc2c(ncnc2NC(=O)CC23CC4CC(CC(C4)C2)C3)C1 [Compound 67],++ (compound exhibited 25-50% inhibition at 0.3 μM)
4,O=C(CC12CC3CC(CC(C3)C1)C2)Nc1ncnc2c1CCN(C(=O)Cc1ccccc1)C2 [Compound 225],++ (compound exhibited 25-50% inhibition at 0.3 μM)
5,O=C(CC12CC3CC(CC(C3)C1)C2)Nc1ncnc2c1CCN(Cc1cccc(Oc3ccccc3)c1)C2 [Compound 68],+ (compound exhibited 0-25% inhibition at 0.3 μM)
6,O=C(CC12CC3CC(CC(C3)C1)C2)Nc1ncnc2c1CCN(Cc1ccc(Cl)c(C(F)(F)F)c1)C2 [Compound 325],+ (compound exhibited 0-25% inhibition at 0.3 μM)
7,Cc1ccc(S(=O)(=O)N2CCc3c(ncnc3NC(=O)CC34CC5CC(CC(C5)C3)C4)C2)cc1Cl [Compound 207],+++ (compound exhibited 50-75% inhibition at 0.3 μM)
8,CN1CCc2c(ncnc2NC(=O)CC23CC4CC(CC(C4)C2)C3)C1 [Compound 7],+ (compound exhibited 0-25% inhibition at 0.3 μM)
9,O=C(CC12CC3CC(CC(C3)C1)C2)Nc1ncnc2c1CCN(Cc1ccc(C(F)(F)F)cc1)C2 [Compound 72],+ (compound exhibited 0-25% inhibition at 0.3 μM)
10,O=C(CC12CC3CC(CC(C3)C1)C2)Nc1ncnc2c1CCN(C(=O)c1ccncc1)C2 [Compound 304],+ (compound exhibited 0-25% inhibition at 0.3 μM)
11,Cc1ccc(S(=O)(=O)N2CCc3c(ncnc3NC(=O)CC34CC5CC(CC(C5)C3)C4)C2)cc1 [Compound 144],+++ (compound exhibited 50-75% inhibition at 0.3 μM)
12,COc1ccccc1CCC(=O)Nc1ncnc2c1CCNC2 [Compound 25],+ (compound exhibited 0-25% inhibition at 0.3 μM)
13,Cc1ccc(CN2CCc3c(ncnc3NC(=O)CC34CC5CC(CC(C5)C3)C4)C2)c(C)c1 [Compound 320],+ (compound exhibited 0-25% inhibition at 0.3 μM)
14,CC(C)CC(=O)N1CCc2c(ncnc2NC(=O)CC23CC4CC(CC(C4)C2)C3)C1 [Compound 255],++ (compound exhibited 25-50% inhibition at 0.3 μM)
15,O=C(CC12CC3CC(CC(C3)C1)C2)Nc1ncnc2c1CCN(C(=O)COCc1ccccc1)C2 [Compound 256],+++ (compound exhibited 50-75% inhibition at 0.3 μM)
16,Cc1cc(C(=O)N2CCc3c(ncnc3NC(=O)CC34CC5CC(CC(C5)C3)C4)C2)n(C)n1 [Compound 285],+ (compound exhibited 0-25% inhibition at 0.3 μM)
17,CS(=O)(=O)c1ccc(CN2CCc3c(ncnc3C(=O)NCC3CCCCC3)C2)cc1 [Compound 56],+ (compound exhibited 0-25% inhibition at 0.3 μM)

# Same assay, conditions: at 0.3 μM; THP-1 cells, BzATP-stimulated
row,SMILES,IL-1β % inhibition
1,Cc1nn(C)c(C)c1S(=O)(=O)N1CCc2c(ncnc2NC(=O)C23CC4CC(CC(C4)C2)C3)C1 [Compound 531],++ (compound exhibited 25-50% inhibition at 0.3 μM)
2,O=C(Nc1ncnc2c1CCN(Cc1cccc(Oc3ccccc3)c1)C2)C12CC3CC(CC(C3)C1)C2 [Compound 568],+ (compound exhibited 0-25% inhibition at 0.3 μM)
3,O=C(Nc1ncnc2c1CCN(S(=O)(=O)c1ccccc1-c1ccccc1)C2)C12CC3CC(CC(C3)C1)C2 [Compound 527],+++ (compound exhibited 50-75% inhibition at 0.3 μM)
4,O=C(c1cccc(C(F)(F)F)c1)N1CCc2c(ncnc2NC(=O)C23CC4CC(CC(C4)C2)C3)C1 [Compound 406],++ (compound exhibited 25-50% inhibition at 0.3 μM)
5,O=C(Nc1ncnc2c1CCN(S(=O)(=O)c1ccccc1OC(F)(F)F)C2)C12CC3CC(CC(C3)C1)C2 [Compound 532],+ (compound exhibited 0-25% inhibition at 0.3 μM)
6,COc1ccc(S(=O)(=O)N2CCc3c(ncnc3NC(=O)C34CC5CC(CC(C5)C3)C4)C2)cc1 [Compound 487],++ (compound exhibited 25-50% inhibition at 0.3 μM)
7,CC(C)CCN1CCc2c(ncnc2NC(=O)C23CC4CC(CC(C4)C2)C3)C1 [Compound 583],+ (compound exhibited 0-25% inhibition at 0.3 μM)
8,O=C(Nc1ncnc2c1CCN(S(=O)(=O)Cc1cc(Cl)cc(Cl)c1)C2)C12CC3CC(CC(C3)C1)C2 [Compound 519],+++ (compound exhibited 50-75% inhibition at 0.3 μM)
9,O=C(COCc1ccccc1)N1CCc2c(ncnc2NC(=O)C23CC4CC(CC(C4)C2)C3)C1 [Compound 428],+ (compound exhibited 0-25% inhibition at 0.3 μM)
10,COc1ccc(C(=O)N2CCc3c(ncnc3NC(=O)C34CC5CC(CC(C5)C3)C4)C2)cc1F [Compound 475],++ (compound exhibited 25-50% inhibition at 0.3 μM)
11,O=C(Nc1ncnc2c1CCN(Cc1ccc(Cl)nc1)C2)C12CC3CC(CC(C3)C1)C2 [Compound 634],+ (compound exhibited 0-25% inhibition at 0.3 μM)
12,O=C(Nc1ncnc2c1CCN(S(=O)(=O)c1ccc3c(c1)OCCO3)C2)C12CC3CC(CC(C3)C1)C2 [Compound 534],+++ (compound exhibited 50-75% inhibition at 0.3 μM)
13,O=C(Nc1ncnc2c1CCN(S(=O)(=O)c1ccc(F)cc1F)C2)C12CC3CC(CC(C3)C1)C2 [Compound 543],++ (compound exhibited 25-50% inhibition at 0.3 μM)
14,COc1cc(F)c(CN2CCc3c(ncnc3NC(=O)C34CC5CC(CC(C5)C3)C4)C2)c(F)c1 [Compound 624],+ (compound exhibited 0-25% inhibition at 0.3 μM)
15,O=C(Nc1ncnc2c1CCN(S(=O)(=O)c1ccc(Cl)cc1)C2)C12CC3CC(CC(C3)C1)C2 [Compound 488],+ (compound exhibited 0-25% inhibition at 0.3 μM)
